Experimental data published in PMC10683027, “Discovery of tert-Butyl Ester Based 6-Diazo-5-oxo-L-norleucine Prodrugs for Enhanced Metabolic Stability and Tumor Delivery” (Journal of Medicinal Chemistry, 2023).
Converted amounts (≈) assume the structure as drawn. “And” between values parts separate entries of the source, which are not always exact repeats. Equal entries are not always repeated.

Tests used:
[1] = Aqueous solubility assay in PBS buffer (pH 7.4); assay type: physicochemical
Method: The aqueous solubility was determined as previously reported with minor modifications.[48] Briefly, an excess amount of P11 or DRP-104 was added to PBS buffer (pH 7.4) and sonicated for 1 h at 37 °C to ensure saturation. After 1 h, the solution was filtered (0.45 μm PTFE), and the filtrate was diluted appropriately, and the concentration of each analyte was determined via LC–MS. Chemical stabilities of DRP-104 and P11 were done as previously described[18] with modifications. For chemical stability, prodrugs were spiked (10 μM) in buffer at pH 7.4 and incubated at 37 °C for 24 h. Prodrug disappearance was monitored using the developed HRMS methods.

[2] = tested on: glutamine and FGAR in EL4 tumors; assay: Tumor target engagement: glutamine and FGAR quantification; assay type: in vivo, C57BL/6/CES1–/– mice; settings: P11 2.9 mg/kg SC
Method: Glutamine and FGAR were extracted from the tumor by protein precipitation. Per milligram of tissue, 5 μL of methanol containing 10 μmol/L deuterated N-acetyl aspartic acid and deuterated glutamate (internal standards) was added. Tissue samples were homogenized as described above and centrifuged (16000g, 5 min). Standard concentration curves of glutamine and FGAR in untreated plasma and tumor tissues were prepared (separately). For FGAR quantification, supernatants (2 μL) were injected and separated on an UltiMate 3000 UHPLC coupled to a Q Exactive Focus Orbitrap mass spectrometer. Samples were separated on an Agilent Eclipse Plus C18 RRHD (1.8 μm) 2.1 × 100 mm column. The mobile phase consisted of 8 mmol/L dimethylhexylamine (DMHA) + 0.005% formic acid in water, pH 9 (A), and 8 mmol/L DMHA in acetonitrile (B). […] Quantification was performed in full MS negative mode. Data were acquired and quantified with Xcalibur software.
Glutamine analysis took place on an Agilent 1290 UPLC coupled to an Agilent 6520 quadrupole time-of-flight mass spectrometer. Samples (2 μL) were injected and separated on a Waters Acquity UPLC BEH Amide 1.7 μm 2.1 × 100 mm HILIC column with a flow rate of 0.3 mL/min. The mobile phases consisted of A (water +0.1% formic acid) and B (acetonitrile + 0.1% formic acid). The mass spectrometer was run in positive ion mode. Standard curves for FGAR and glutamine were fitted using a blank subtraction method[47] to compensate for the presence of endogenous analyte levels in naïve matrixes.

[3] = Stability of P11 in human plasma; assay type: in vitro ADME; settings: Figure 3A
Method: (§1) Briefly, intestinal tissue was homogenized over ice via probe sonication with 1:9 tissue to potassium phosphate buffer (0.1 M) conditions. Prodrugs were spiked in plasma or tissue homogenate at 10 μM final concentration with 0.2% DMSO v/v and incubated in triplicate for 0 and 60 min time points. At each time point, 100 μL of the sample was precipitated with 300 μL of methanol containing internal standard (IS; losartan, 0.5 μM). Precipitated samples were vortexed (30 s) and centrifuged at 10000g for 10 min at 4 °C. After centrifugation, 100 μL of supernatant was aliquoted and submitted for analysis. Prodrug disappearance over time was monitored by liquid chromatography–mass spectrometry (LC–MS) through peak area ratios between the analyte and internal standard.

P493B lymphoma cells = assay: Cell viability assay; assay type: cell-based; settings: Homo sapiens, 72 h, 72 h incubation
Method: Cell proliferation assays were performed as we have previously described.[19] Briefly, P493B lymphoma cells were plated in 96-well plates at a density of 20 000 cells/well in a final volume of 100 μL of growth media. P11, or DRP-104, was added to cells in half-log serial dilutions with a final concentration of 0.2% DMSO. Cells were allowed to proliferate for 72 h, and thereafter, 20 μL of CellTiter 96 AQueous (Promega no. 3580) was added per well and incubated for 2 h. Absorbance was measured at 490 nm. Relative cell viability was calculated from the difference between untreated cell wells (100%) and media well without cells (0%).

[4] = tested on: P493B lymphoma cells suspended in human plasma; assay: Human tumor cell to plasma partitioning assay; assay type: cell-based; settings: 20 μM; 1 h; human plasma fraction
Method: Human tumor cell to plasma partitioning assays were conducted as we have previously described.[25] Briefly, P493B lymphoma cells were grown at 37 °C, in a humidified atmosphere with 5% CO2. Cell confluency was estimated, and cells were harvested after achieving >80% confluency and centrifuged at 200g for 5 min at 25 °C. The obtained cell pellet was resuspended in 20 mL of Dulbecco’s phosphate-buffered saline (DPBS; Gibco, USA, cat. no. 14-190-144) maintained at 37 °C, and cell count was determined using an automated cell counter (Bio-Rad, USA). Cell suspension in DPBS was further centrifuged at 200g for 5 min at 25 °C, and the cell pellet was resuspended in human plasma (Innovative Research, USA) for partitioning assessment. The final cell density after resuspending in plasma was 10 million cells/mL of plasma. Partitioning assessment was performed in triplicate. Preincubated (37 °C for 5 min) cell–plasma suspension was spiked with DRP-104 or P11 at a final concentration of 20 μM and incubated at 37 °C for 1 h. Following incubation, a 1 mL aliquot of cell–plasma suspension was centrifuged at 1000g for 5 min at 4 °C, and supernatant plasma as well as the cell pellet was collected and stored at −80 °C until bioanalysis. Both plasma and cell pellet fractions were analyzed for intact prodrug and DON levels. […]

[5] = Metabolic stability in mouse plasma
Method: as §1
Chromatographic analysis was performed on a Dionex ultra-high-performance LC system coupled with a Q Exactive Focus Orbitrap mass spectrometer (Thermo Fisher Scientific Inc., Waltham, MA). Separation was achieved using an Agilent Eclipse Plus column (100 × 2.1 mm i.d.; maintained at 35 °C) packed with a 1.8 μm C18 stationary phase. The mobile phase used was composed of 0.1% formic acid in acetonitrile and 0.1% formic acid in water with gradient elution, starting with 2.5% organic phase (from 0 to 0.25 min) and linearly increasing to 99% (from 0.25 to 1.25 min) and re-equilibrating to 2.5% by 4 min. The total run time for each analyte was 5 min. Pumps were operated at a flow rate of 0.4 mL/min. The mass spectrometer controlled by Xcalibur software 4.0.27.13 (Thermo Scientific) was operated with an HESI ion source in positive ionization mode for all compounds. Compounds were identified in the full-scan mode with m/z ranging from 75 to 1125.

solubility at 1 h ([1]; PBS buffer pH 7.4, 37 °C, 1 h): 8100 ± 1100 µg/mL (≈ 17.6 mM)
fold solubility improvement compared to DRP-104 ([1]; buffer pH 7.4): 33 and > 30
stability in human plasma [3]: confirmed
EC50 (P493B lymphoma cells): ~300 nM
remaining at 1 h, 10 µM ([5]; CES1–/–, mouse, plasma): 93 ± 1%
Plasma ([5]; supplementary CSV, unit not given, matches Table 1 % remaining at 1 h, in %): 93 ± 1
SMILES: CN(C)CC(=O)N[C@@H](Cc1ccccc1)C(=O)N[C@@H](CCC(=O)C=[N+]=[N-])C(=O)OC(C)(C)C [Prodrug P11, tert-Butyl (S)-6-Diazo-2-((S)-2-(2-(dimethylamino)acetamido)-3-phenylpropanamido)-5-oxohexanoate]
fold increase in tumor FGAR compared with vehicle ([2]; 30 min): 150
fold rise in tumor glutamine compared with vehicle ([2]; 30 min): ~2
tumor FGAR level ([2]; 30 min post dose (Tmax)): 1040 ± 179 nmol/g
tumor glutamine level ([2]; 30 min post dose (Tmax)): 1710 ± 173 nmol/g
stability and DON release in human plasma [4]: stable in human plasma with no DON release
